How the values were obtained:
[1] = test system: normal NK cells expanded with K562-aAPC; assay: drug sensitivity score (DSS) (DSS units); higher = more sensitive; extreme values may be limits of the assay; settings: 72 h; IL-2 2.5 ng/mL
Description: (§1)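 Drug sensitivity and resistance testing on K562-aAPC-expanded normal NK cells: 5 concentrations (10-fold steps over a 10,000-fold range), 72 h at 37 °C, viability by CellTiter-Glo normalised to DMSO and benzethonium chloride controls; DSS from the fitted curve.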

IMC-1 (IL-2 20 ng/mL) [2] = assay: percent inhibition of viability; higher = more inhibition; settings: 72 h
[3] = test system: normal primary NK cells, pool 3 (3 donors) (IL-2 2.5 ng/mL); assay: as above; settings: 72 h
[4] = test system: normal primary NK cells, pool 2 (3 donors) (IL-2 2.5 ng/mL); assay: as above; settings: 72 h
IMC-1 (IL-2 20 ng/mL) [5] = assay: drug sensitivity score (DSS) (DSS units); higher = more sensitive; extreme values may be limits of the assay; settings: 72 h
[6] = test system: normal primary NK cells, pool 3 (3 donors) (IL-2 2.5 ng/mL); assay: as above; settings: 72 h
[7] = test system: normal primary NK cells, pool 2 (3 donors) (IL-2 2.5 ng/mL); assay: as above; settings: 72 h
[8] = test system: normal NK cells expanded with K562-aAPC; assay: percent inhibition of viability; higher = more inhibition; settings: 72 h, IL-2 2.5 ng/mL
Description: as §1

KAI3 (IL-2 2.5 ng/mL) [9] = assay: as above; settings: 72 h
KHYG-1 (IL-2 2.5 ng/mL) [10] = assay: as above; settings: 72 h
DERL-7 (IL-2 2.5 ng/mL) [11] = assay: as above; settings: 72 h
[12] = test system: normal primary NK cells, pool 1 (3 donors) (IL-2 2.5 ng/mL); assay: as above; settings: 72 h
NK-92 (IL-2 2.5 ng/mL) [13] = assay: as above; settings: 72 h
NKL (IL-2 2.5 ng/mL) [14] = assay: as above; settings: 72 h
YT (IL-2 2.5 ng/mL) [15] = assay: as above; settings: 72 h
SNK-6 (IL-2 2.5 ng/mL) [16] = assay: as above; settings: 72 h
[17] = test system: normal primary NK cells, pool 1 (3 donors), resting (IL-2 0 ng/mL); assay: as above; settings: 72 h
NK-YS (IL-2 2.5 ng/mL) [18] = assay: as above; settings: 72 h
KAI3 (IL-2 2.5 ng/mL) [19] = assay: drug sensitivity score (DSS) (DSS units); higher = more sensitive; extreme values may be limits of the assay; settings: 72 h
KHYG-1 (IL-2 2.5 ng/mL) [20] = assay: as above; settings: 72 h
DERL-7 (IL-2 2.5 ng/mL) [21] = assay: as above; settings: 72 h
[22] = test system: normal primary NK cells, pool 1 (3 donors) (IL-2 2.5 ng/mL); assay: as above; settings: 72 h
NK-92 (IL-2 2.5 ng/mL) [23] = assay: as above; settings: 72 h
NKL (IL-2 2.5 ng/mL) [24] = assay: as above; settings: 72 h
YT (IL-2 2.5 ng/mL) [25] = assay: as above; settings: 72 h
SNK-6 (IL-2 2.5 ng/mL) [26] = assay: as above; settings: 72 h
[27] = test system: normal primary NK cells, pool 1 (3 donors), resting (IL-2 0 ng/mL); assay: as above; settings: 72 h
NK-YS (IL-2 2.5 ng/mL) [28] = assay: as above; settings: 72 h

COc1cc(C(=O)O)ccc1NC(=O)[C@@H]1N[C@@H](CC(C)(C)C)[C@](C#N)(c2ccc(Cl)cc2F)[C@H]1c1cccc(Cl)c1F [Idasanutlin] (max concentration tested 10000 nM)
Settings | drug sensitivity score
IMC-1 (IL-2 20 ng/mL) [5] | 3.88
[1] | 21.9
[6] | 17
[7] | 19.3

percent inhibition of viability [%]
Settings | 1 nM | 10 nM | 100 nM | 1000 nM | 10000 nM
IMC-1 (IL-2 20 ng/mL) [2] | -3 | 0.8 | -0.27 | 12.7 | 40.4
[3] | -6.26 | -3.17 | 33.5 | 68.8 | 95.6
[4] | -8.25 | -4.67 | 32.8 | 82.7 | 97.8
[8] | 6.65 | 13.4 | 39.6 | 95.2 | 101

CC(=O)O[C@]1(C(C)=O)CC[C@H]2[C@@H]3C=C(C)C4=CC(=O)CC[C@]4(C)[C@H]3CC[C@@]21C [Megestrol acetate] (max concentration tested 10000 nM)
Settings | drug sensitivity score
IMC-1 (IL-2 20 ng/mL) [5] | 0
[1] | 2.54
[6] | 1.28
[7] | 4.38

percent inhibition of viability [%]
Settings | 1 nM | 10 nM | 100 nM | 1000 nM | 10000 nM
IMC-1 (IL-2 20 ng/mL) [2] | -3.51 | -1.23 | -4.32 | -2.13 | 10.4
[3] | -8.34 | -5.63 | 0.83 | 2.52 | 24.3
[4] | -3.39 | 3.68 | -0.74 | 11.2 | 49.3
[8] | -2.74 | -5.98 | 7.94 | 13.9 | 28.7

Nc1nc2[nH]cc(CCc3ccc(C(=O)N[C@@H](CCC(=O)O)C(=O)O)cc3)c2c(=O)[nH]1 [Pemetrexed] (max concentration tested 10000 nM)
Settings | drug sensitivity score
IMC-1 (IL-2 20 ng/mL) [5] | 20.9
[1] | 8.95
[6] | 0
[7] | 0

percent inhibition of viability [%]
Settings | 1 nM | 10 nM | 100 nM | 1000 nM | 10000 nM
IMC-1 (IL-2 20 ng/mL) [2] | -2.55 | -0.76 | 27.5 | 93 | 94.2
[3] | -6.87 | -6.65 | -7.52 | -11.4 | -7.17
[4] | -0.42 | -8.75 | -3.95 | -3.15 | -2.1
[8] | -3.65 | -7.62 | 29.1 | 32.5 | 32.7

CC[C@H](C)C(=O)O[C@H]1C[C@H](O)C=C2C=C[C@H](C)[C@H](CC[C@@H](O)C[C@@H](O)CC(=O)O)[C@H]21 [Pravastatin] (max concentration tested 10000 nM)
Settings | drug sensitivity score
IMC-1 (IL-2 20 ng/mL) [5] | 0
[1] | 0
[6] | 0
[7] | 0

percent inhibition of viability [%]
Settings | 1 nM | 10 nM | 100 nM | 1000 nM | 10000 nM
IMC-1 (IL-2 20 ng/mL) [2] | 1.44 | 3.55 | -0.89 | 2.49 | 1.04
[3] | -14.4 | -6.44 | 1.67 | -7.95 | -0.67
[4] | -8.99 | -4.79 | 10.9 | -9.05 | 10.6
[8] | -2.35 | -3.35 | 0.49 | 5.71 | 4.92

COc1cc(C(=O)O)ccc1NC(=O)[C@@H]1N[C@@H](CC(C)(C)C)[C@](C#N)(c2ccc(Cl)cc2F)[C@H]1c1cccc(Cl)c1F [RG7388] (max concentration tested 10000 nM)
percent inhibition of viability [%]
Settings | DERL-7 (IL-2 2.5 ng/mL) [11] | KAI3 (IL-2 2.5 ng/mL) [9] | KHYG-1 (IL-2 2.5 ng/mL) [10] | NK-92 (IL-2 2.5 ng/mL) [13] | NK-YS (IL-2 2.5 ng/mL) [18] | NKL (IL-2 2.5 ng/mL) [14] | SNK-6 (IL-2 2.5 ng/mL) [16] | YT (IL-2 2.5 ng/mL) [15] | [12] | [17]
1 nM | -5.33 | 5.19 | -1.57 | 2.22 | 1.18 | 2.91 | 3.57 | 6.01 | 1.86 | -11.7
10 nM | 3.83 | 25.6 | 1.09 | -12.5 | 18.7 | 8.19 | 25.5 | 14.9 | -0.07 | 10.5
100 nM | 51.1 | 39.8 | -3.21 | 8.42 | 53.1 | 7.58 | 70.5 | 38.6 | 41.8 | 85.2
1000 nM | 96.7 | 59.1 | -4.2 | 8.41 | 82.9 | 5.83 | 81.8 | 50.9 | 90.3 | 92.2
10000 nM | 101 | 68.4 | 53.8 | 65.4 | 99.9 | 67 | 92.7 | 86.7 | 99.1 | 93.6

Settings | drug sensitivity score
DERL-7 (IL-2 2.5 ng/mL) [21] | 23.8
KAI3 (IL-2 2.5 ng/mL) [19] | 18.3
KHYG-1 (IL-2 2.5 ng/mL) [20] | 2.54
NK-92 (IL-2 2.5 ng/mL) [23] | 5
NK-YS (IL-2 2.5 ng/mL) [28] | 23.3
NKL (IL-2 2.5 ng/mL) [24] | 4.61
SNK-6 (IL-2 2.5 ng/mL) [26] | 27.2
YT (IL-2 2.5 ng/mL) [25] | 16.1
[22] | 21.8
[27] | 28.8

CCCC(CCC)C(=O)O [Valproic acid] (max concentration tested 1000000 nM)
Settings | drug sensitivity score
IMC-1 (IL-2 20 ng/mL) [5] | 0.34
[1] | 2
[6] | 0.1
[7] | 1.5

percent inhibition of viability [%]
Settings | 100 nM | 1000 nM | 10000 nM | 100000 nM | 1000000 nM
IMC-1 (IL-2 20 ng/mL) [2] | -0.33 | -1.48 | -8.1 | -1.23 | 17.4
[3] | -5.69 | -8.36 | -12.2 | -3.8 | 14.2
[4] | -3.47 | -9.08 | -3.52 | 0.62 | 31.7
[8] | -5.06 | -5.78 | -6.14 | 2.07 | 35.9

Reference: the supplement of paper PMC5908809
